Measured values taken from patent US6942979B1, “Method for screening substances capable of modulating the activity of a TRAAK potassium channel” (Centre National de la Recherche Scientifique-CNRS, priority 1998, dated 2005).
Each block holds one compound with its values, some of them ahead of it.

Legend:
Assay type in all cases: cell-based
[1] = molecular target: T1, TRAAK channel (Mus musculus, UniProt O88454); assay: TRAAK currents in Xenopus oocytes injected with TRAAK cRNA, imposed voltage technique
T1 construct: an open reading phase of 1197 nucleotides coding for a polypeptide of 398 residues; expressed in transfected cells; host or cells: COS cells (transient)
T1 sequence (O88454 1-398): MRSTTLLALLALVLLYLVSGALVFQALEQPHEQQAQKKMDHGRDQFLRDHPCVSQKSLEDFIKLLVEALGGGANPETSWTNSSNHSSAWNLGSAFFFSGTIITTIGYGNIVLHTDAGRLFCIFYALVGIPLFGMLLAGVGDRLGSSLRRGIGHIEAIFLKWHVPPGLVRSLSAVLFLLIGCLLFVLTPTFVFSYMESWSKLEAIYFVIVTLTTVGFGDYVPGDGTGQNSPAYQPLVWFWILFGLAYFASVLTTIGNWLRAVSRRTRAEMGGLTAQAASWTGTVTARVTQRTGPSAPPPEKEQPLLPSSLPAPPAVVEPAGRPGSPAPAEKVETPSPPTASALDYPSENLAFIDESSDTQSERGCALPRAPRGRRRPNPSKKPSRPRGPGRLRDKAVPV
Description: In (a): the oocytes were maintained at a potential of −80 mV then the currents were recorded following potential jumps from −150 to +50 mV by increments of 20 mV. The recordings were performed in an external medium containing a K^+ concentration of 2 mM or 74 mM. In (b): current-potential relation was according to the same experimental set-up as in (a). In (c): potential reversal (Erev) of the TRAAK currents were a function of the external K^+ concentration. In (d): currents recorded on COS cells transfected by TRAAK according to the same protocol as in (a). In (e): current-potential relation was according to the same experimental set-up as in (d).
(§1) For the functional study, the coding sequence of TRAAK was inserted in the vector pEXO and a complementary RNA (cRNA) was synthesized from this construction and injected in Xenopus oocytes. For expression in the COS cells, the TRAAK sequence was subcloned in an expression vector under the control of a eukaryote promoter and transfected into the cells. An absent non-inactivating current from the oocytes and the control cells was measured by the imposed voltage technique as represented in FIG. 4. The activation was instantaneous and could not be resolved because it was masked by the capacitive discharge of the current recorded at the beginning of the potential jump. The current-potential relation rectified in the outgoing direction when the external K^+ concentration was equal to 2 mM. Incoming currents were observed when the external K^+ concentration was increased. At all concentrations, the current-potential curves followed the Goldman-Hodgkin-Katz relation. […] The TRAAK channel is selective for potassium. Reversal of the current potential follows the equilibrium potential of K^+ and changing the concentration of K^+ by 10 leads to a change in the potential inversion value conforming to the value predicted by Nernst's equation (48.7±0.7 mV times 10, n=4).

[2] = molecular target: T1, TRAAK channel; assay: TRAAK currents in transfected COS cells, imposed voltage technique; design: increase in the current induced by AA: dose or concentration left out as unconfirmed
Description: as §1, with “The maintenance potential was -80 mV. In FIG. 9b: dose-effect relation ofthe activation” for “For the functional study, the coding sequence”, “by AA is shown. In FIG. 9c: current-potential relations obtained as in FIG. 9a” for “was inserted”, “outside-out configuration are shown. […] In FIG. 9d: a histogram represents the coefficient of augmentation of the currents obtained after application of various fatty acids (10 μM). […] The coefficient of augmentation is indicated in each case. […] The current-potential relations were obtained as in FIG. 9a above” for “vector pEXO”, “after application ofriluzole (100 μM) on the transfected COS cells. […]” for “a complementary RNA (cRNA) was synthesized from this construction and injected in Xenopus oocytes.”

[3] = molecular target: T2, TREK-1 channel (Mus musculus, UniProt P97438); assay: TREK-1 currents in transfected COS cells, patch recording; details: AA 10 μM applied in the external medium, transfected COS cells
T2 construct: expressed in transfected cells; host or cells: COS cells
T2 sequence (P97438 with tags, fused parts or gaps isoform P97438-2 T63A/R366M): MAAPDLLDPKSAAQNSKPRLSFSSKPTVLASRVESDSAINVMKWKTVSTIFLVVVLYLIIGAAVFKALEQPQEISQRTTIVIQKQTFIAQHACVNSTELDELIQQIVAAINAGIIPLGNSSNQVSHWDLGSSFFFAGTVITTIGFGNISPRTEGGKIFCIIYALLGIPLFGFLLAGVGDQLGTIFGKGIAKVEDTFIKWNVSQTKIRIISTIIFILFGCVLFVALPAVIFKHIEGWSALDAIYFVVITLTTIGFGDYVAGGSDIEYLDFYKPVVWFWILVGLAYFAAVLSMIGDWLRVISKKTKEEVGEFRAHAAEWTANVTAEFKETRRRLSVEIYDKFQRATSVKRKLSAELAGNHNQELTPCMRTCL
Description: (§2) In FIG. 8a: the activity of TREK-1 was recorded in the attached cell configuration. The patch was stimulated by a potential ramp lasting 800 msec every 5 seconds. The currents were measured at 80 mV. The applications of arachidonic acid (AA, 10 μM) are indicated by the horizontal bars. During the experiment, the patch was stimulated by tensions of 50 mmHg (indicated by the arrows). At 9 minutes, the patch was excised in the inside-out configuration. In FIG. 8b: current-potential relations corresponding to the experiment illustrated in FIG. 8a is shown. In FIG. 8c: activity of TREK-1 in the attached cell configuration with 10 μM AA in the pipette can be seen. The potential ramp lasted 800 msec and the currents were measured at 80 mV. In FIG. 8d: single-channel current-potential relations at the moment at which the pipette was placed on the membrane or after 20 minutes and 1 minute after the patch was excised in the inside-out configuration. […] The current was measured at 80 mV. In FIG. 8f: AA had no effect on the TREK-1 current measured in the intact cell when it was in the pipette. The current was measured 30 minutes after the patch was broken (control tracing) by a potential ramp of 800 msec. The current was then measured after an application of AA of 1 minute in the external medium (AA tracing).
(§3) FIGS. 10a and b are graphs showing the effect of riluzole on the TREK-1 and TRAAK […] currents. The current-potential relations were obtained as in FIG. 9a above and after application ofriluzole (100 μM) on the transfected COS cells.

[4] = molecular target: T3, TREK-1 channel (Mus musculus, UniProt P97438, R381M/T78A); assay: as above
T3 construct: expressed in transfected cells; host or cells: COS cells
T3 sequence (P97438 with tags, fused parts or gaps isoform P97438-2 T63A/R366M): T2 sequence (P97438 with tags, fused parts or gaps isoform P97438-2 T63A/R366M)
Description: as §2, §3

[5] = molecular target: T4, TWIK-1 channel (Homo sapiens, UniProt O00180); assay: TWIK-1 currents in transfected COS cells before and after AA; details: intact cell configuration
T4 construct: expressed in transfected cells; host or cells: COS cells (transient)
T4 sequence (O00180 1-336): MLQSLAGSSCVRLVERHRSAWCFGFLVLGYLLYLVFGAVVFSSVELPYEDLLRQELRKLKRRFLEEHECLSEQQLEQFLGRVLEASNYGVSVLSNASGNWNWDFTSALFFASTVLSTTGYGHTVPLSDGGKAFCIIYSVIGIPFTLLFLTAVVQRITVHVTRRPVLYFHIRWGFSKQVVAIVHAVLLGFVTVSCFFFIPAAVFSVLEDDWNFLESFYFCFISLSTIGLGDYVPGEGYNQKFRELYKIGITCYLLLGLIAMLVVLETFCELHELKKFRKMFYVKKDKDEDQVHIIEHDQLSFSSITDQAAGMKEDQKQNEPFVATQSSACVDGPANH

[6] = molecular target: T5, TASK channel (Homo sapiens, UniProt O14649); assay: TASK currents in transfected COS cells before and after AA; details: intact cell configuration
T5 construct: expressed in transfected cells; host or cells: COS cells (transient)
T5 sequence (O14649 whole entry): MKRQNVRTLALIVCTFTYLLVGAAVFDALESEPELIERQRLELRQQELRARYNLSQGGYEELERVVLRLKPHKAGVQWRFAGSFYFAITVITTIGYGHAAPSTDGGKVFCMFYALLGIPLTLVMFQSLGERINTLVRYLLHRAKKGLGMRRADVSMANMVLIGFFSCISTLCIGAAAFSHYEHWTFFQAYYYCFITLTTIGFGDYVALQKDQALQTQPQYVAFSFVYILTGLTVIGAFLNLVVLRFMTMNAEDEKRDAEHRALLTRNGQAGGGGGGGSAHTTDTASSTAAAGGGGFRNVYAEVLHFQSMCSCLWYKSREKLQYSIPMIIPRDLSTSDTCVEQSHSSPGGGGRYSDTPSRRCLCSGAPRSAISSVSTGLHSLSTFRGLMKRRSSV

[7] = tested on: control cells (CD8); assay: Application of AA on control cells (CD8)
[8] = molecular target: T1, TRAAK channel; assay: TRAAK currents in transfected COS cells, imposed voltage technique; details: concentration of 10 μM
[9] = riluzole 100 μM, transfected COS cells

Structure (SMILES): Nc1ccncc1 [4-aminopyridine]
- sensitivity of TRAAK to potassium channel blocking agents ([1]; 1 mM): insensitive

Structure (SMILES): CCCCC/C=C\C/C=C\C/C=C\C/C=C\CCCC(=O)O [AA, arachidonic acid]
- activation of the TRAAK channel by AA ([2]; AA 10 μM (FIG. 9a), transfected COS cells, reversible, concentration dependent): activated
- increase in the current induced by AA ([2]; AA perfusion with mixture of inhibitors of AA metabolism, at +50 mV, n=3): 6.6±0.5 times
- activation of TREK-1 by AA [3]: activated
- activation of TREK-1 by internal AA ([4]; AA in the pipette, intact cell, dialyzed up to 30 minutes): did not activate
- effect of activation by AA on TWIK-1 [5]: No effects of the same type
- effect of activation by AA on TASK [6]: No effects of the same type
- effect of AA on control cells [7]: no effect

Structure (SMILES): CCCCC/C=C\C/C=C\C/C=C\C/C=C\CCCC(=O)OC [AA-ME]
- activation of the TRAAK channel by fatty acids and derivatives [8]: inactive

Structure (SMILES): CCCCC/C=C\C/C=C\C/C=C\C/C=C\CCCCO [AA-OH]
- activation of the TRAAK channel by fatty acids and derivatives [8]: inactive

Structure (SMILES): CCCCCCCC/C=C\CCCCCCCC(=O)O [oleic, oleic acid]
- activation of the TRAAK channel by fatty acids and derivatives [8]: activation

Structure (SMILES): CC[N+](CC)(CC)CC [tetraethylammonium]
- sensitivity of TRAAK to potassium channel blocking agents ([1]; 1 mM): insensitive

Second part, the compound after the results:

- activation of the TRAAK channel by fatty acids and derivatives [8]: inactive
Structure (SMILES): CCC=CCC=CCC=CCC=CCC=CCC=CCCC(=O)OC [DOHA-ME]

- effect of riluzole on the TRAAK channel [2, 9]: opener
- effect of riluzole on the TREK-1 channel [4, 9]: opener
Structure (SMILES): Nc1nc2ccc(OC(F)(F)F)cc2s1 [Riluzole, riluzole]

- activation of the TRAAK channel by fatty acids and derivatives [8]: no effect
Structure (SMILES): CCCCCCCCCCCCCCCCCCCC(=O)O [arachidic, arachidic acid]

- activation of the TRAAK channel by fatty acids and derivatives [8]: activation
Structure (SMILES): CC/C=C\C/C=C\C/C=C\C/C=C\C/C=C\C/C=C\CCC(=O)O [docosohexaenoic, docosohexaenoic acid]

- activation of the TRAAK channel by fatty acids and derivatives [8]: activation
Structure (SMILES): CCCCC/C=C\C/C=C\CCCCCCCC(=O)O [linoleic, linoleic acid]

- activation of the TRAAK channel by fatty acids and derivatives [8]: no effect
Structure (SMILES): CCCCCCCCCCCCCCCC(=O)O [palmitic, palmitic acid]

- sensitivity of TRAAK to potassium channel blocking agents ([1]; 100 mM): insensitive
Structure (SMILES): C=C[C@H]1C[N@@]2CC[C@H]1C[C@H]2[C@H](O)c1ccnc2ccc(OC)cc12 [quinine]

- activation of the TRAAK channel by fatty acids and derivatives [8]: no effect
Structure (SMILES): CCCCCCCCCCCCCCCCCC(=O)O [stearic, stearic acid]
